Experimental data reported in patent publication US12570642B2, “GLP-IR modulating compounds” (Gilead Sciences, Inc., priority 2021, dated 2026).
Where two headings read alike, the source gives them in different places.

Tests used:
[1] = Pharmacokinetic (PK) studies, in vivo monkey oral PK; set-up: species or system Cynomolgus monkeys; settings: Cynomolgus monkey; for Tmax / AUC(0-t) / Cmax / bioavailability: plasma; for AUC(0-t): read-out: AUC0-24 (Arbitrary units); for Cmax: read-out: Cmax (Arbitrary unit); for bioavailability: read-out: F % (oral bioavailability)
Protocol: Pharmacokinetic (PK) Studies Test Articles:
Examples 60, 115, 117, and 119 were tested along with comparative examples CE-1 and CE-2.
Dose Formulation Preparation
Compounds CE-2, Example 60, Example 115, Example 117, and Example 119 were combined with a mixture of 10% NMP (v:v) and 90% PEG300 (v:v), and the mixture was stirred until a homogeneous solution was obtained.
Compound CE-1 was combined with a mixture of 15% 2-hydroxypropyl-β-cyclodextrin (w:v) and 85% Milli-Q water (v:v), and the mixture was stirred until a homogeneous solution was obtained.
Young adult non-naive Cynomolgus monkeys with weight about 2.5-5 kg (n=1-3/test article/route) were fasted overnight and then dosed with either CE-1, CE2, Example 60, Example 115, Example 117 or Example 119. Food was supplied approximately 4 hours post dose and animals were provided with free access to water all the time. Animals were restrained at designated time points for blood sampling. Approximately 500 μL of blood samples was taken via cephalic or saphenous vein into EDTA-K2 tubes. For oral administration (PO): blood samples were generally collected pre-dose, and at 15 min, 30 min, 1 hr., 2 hr., 4 hr., 8 hr., 12 hr., and 24 hr. time points after dosing. Blood was be maintained on wet ice, in chilled cryoracks, or at approximately 5° C. prior to centrifugation to obtain plasma. Centrifugation was conducted within 1 hour of collection. Plasma (approximately 200 μL) was placed into a micronic tubes containing 4 μL of formic acid (the final concentration of formic acid in plasma was approximately 2%) and samples were vortex mixed. Samples were maintained on dry ice prior to storage at approximately −70° C.
LC-MS/MS assays were utilized to quantify the concentration of the test articles in plasma as follows.
50 μL plasma sample was mixed with 350 μL of ACN combined with an internal standard. The mixture was then vortexed for about 1-5 min, and centrifuged at about 4,000-5,800 rpm for about […]. An aliquot of 1 μL supernatant was used for LC-MS/MS analysis.
MS conditions: A Sciex API 6500 equipped with electrospray ionization in the positive ion selected reaction monitoring mode was used for detection.
HPLC conditions • Mobile Phase A: H2O-0.11% Formic Acid • Mobile Phase B: ACN-0.1% Formic Acid
• Column: Phenomenex Kinetex XBCl8 (2.1×50 mm, 2.6 μm) with a flow rate of 1.20 mL/min • Column temperature: 60° C. • Retention time: approximately between 0.85 to 1.05 • min Pharmacokinetics (PK) Parameters
Pharmacokinetics parameters, including area under the curve (AUC0-24), maximum plasma concentration (Cmax), time to reach maximum plasma concentration (Tmax), oral bioavailability (F %), etc., were calculated using Dotmatics software in non-compartmental model.

[2] = molecular target: GLP-1R (Homo sapiens, UniProt P43220); test: GLP-1R Activation - cAMP Assay; type: cell-based; settings: cAMP increase in CHO cells stably expressing GLP-1R; each compound run on one of the two cAMP assays (Assay 1 or Assay 2, not specified)
Summary of the method: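 CHO cells stably expressing GLP-1R, plated at 1,000 cells/well overnight, then equilibrated 1 h in HBSS with 20 mM Hepes and 0.1% BSA. Agonist added as 10-point dose response for 30 min at 37 °C. cAMP measured by HTRF (Cisbio Gs Dynamic kit); EC50 from sigmoidal fit.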

GLP-1R, sequence (P43220 24-463): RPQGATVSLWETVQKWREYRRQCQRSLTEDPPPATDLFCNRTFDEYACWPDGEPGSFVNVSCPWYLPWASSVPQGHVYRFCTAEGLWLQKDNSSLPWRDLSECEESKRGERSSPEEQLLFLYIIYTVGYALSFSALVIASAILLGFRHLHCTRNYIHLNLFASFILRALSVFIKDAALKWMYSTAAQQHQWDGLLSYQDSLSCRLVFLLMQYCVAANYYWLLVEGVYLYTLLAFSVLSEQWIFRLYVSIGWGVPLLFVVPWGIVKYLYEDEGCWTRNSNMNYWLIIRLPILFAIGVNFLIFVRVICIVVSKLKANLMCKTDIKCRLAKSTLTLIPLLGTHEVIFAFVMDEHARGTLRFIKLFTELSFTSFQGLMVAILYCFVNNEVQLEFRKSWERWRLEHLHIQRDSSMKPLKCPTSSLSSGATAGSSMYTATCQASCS

Row | SMILES | plasma concentrations ([1]; over a period of 12 h after a single oral dose of 1 mg/kg) [nM] | Tmax ([1]; single oral dose 1 mg/kg) [h] | AUC(0-t) ([1]; single oral dose 1 mg/kg) [µM·h] | Cmax ([1]; single oral dose 1 mg/kg) [nM] | plasma exposure after the 12 h period ([1]; single oral dose of 1 mg/kg, after 12 h) | bioavailability ([1]; single oral dose 1 mg/kg) [%] | duration of exposure ([1]; single oral dose 2 mg/kg) | Tmax ([1]; single oral dose 2 mg/kg) [h] | AUC(0-t) ([1]; single oral dose 2 mg/kg) [µM·h] | Cmax ([1]; single oral dose 2 mg/kg) [nM] | bioavailability ([1]; single oral dose 2 mg/kg) [%] | EC50 [2] [nM]
1 | N#Cc1ccc(COc2cccc(C3CCN(Cc4nc5ccc(C(=O)O)cc5n4C[C@@H]4CCO4)CC3)n2)c(F)c1 [CE-1, (S)-2-((4-(6-((4-cyano-2-fluorobenzyl)oxy)pyridin-2-yl)piperidin-1-yl)methyl)-1-(oxetan-2-ylmethyl)-1H-benzo[d]imidazole-6-carboxylic acid, reference compound] | < 10 | 2.2 ± 1.8 | 0.0477 ± 0.0133 | 4.5 ± 0.8 | below the detection limit | 2.5 | – | – | – | – | – | –
2 | N#Cc1ccc(COc2cccc(-c3cc(F)c(Cc4nc5ccc(C(=O)O)cc5n4C[C@@H]4CCO4)cc3F)n2)c(F)c1 [CE-2, (S)-2-(4-(6-((4-cyano-2-fluorobenzyl)oxy)pyridin-2-yl)-2,5-difluorobenzyl)-1-(oxetan-2-ylmethyl)-1H-benzo[d]imidazole-6-carboxylic acid, reference compound] | – | – | – | – | – | – | sustained exposures over 24 h | 4 ± 2 | 2.81 ± 1.33 | 224 ± 130 | 27.4 | –
3 | CC1(C)COC[C@H]1n1c(Cc2cc(F)c(-c3cccc(OCc4ccc(C#N)cc4F)n3)cc2F)nc2ccc(C(=O)O)cc21 [Example 60] | – | – | – | – | – | – | – | 1.5 ± 0.9 | 5.57 ± 2.19 | 385 ± 82 | 47.6 ± 12.3 | 0.04

Results, then the molecule that gave them:

Row | plasma concentrations ([1]; over a period of 12 h after a single oral dose of 1 mg/kg) [nM] | Tmax ([1]; single oral dose 1 mg/kg) [h] | AUC(0-t) ([1]; single oral dose 1 mg/kg) [µM·h] | Cmax ([1]; single oral dose 1 mg/kg) [nM] | plasma exposure after the 12 h period ([1]; single oral dose of 1 mg/kg, after 12 h) | bioavailability ([1]; single oral dose 1 mg/kg) [%] | duration of exposure ([1]; single oral dose 2 mg/kg) | Tmax ([1]; single oral dose 2 mg/kg) [h] | AUC(0-t) ([1]; single oral dose 2 mg/kg) [µM·h] | Cmax ([1]; single oral dose 2 mg/kg) [nM] | bioavailability ([1]; single oral dose 2 mg/kg) [%] | EC50 [2] [nM] | SMILES
4 | – | – | – | – | – | – | – | 2.7 ± 1.2 | 17.9 ± 2.04 | 1540 ± 166 | 42 ± 16.5 | 0.122 | CC1(C)COC[C@H]1n1c(Cc2cc(F)c(-c3cccc(OCc4ccc(Cl)cc4F)n3)cc2F)nc2ccc(C(=O)O)cc21 [Example 115]
5 | – | – | – | – | – | – | – | 4.7 ± 2.3 | 12.8 ± 4.01 | 1600 ± 832 | 52.2 ± 16.3 | 0.044 | CC1(C)COC[C@H]1n1c(Cc2cc(F)c(-c3ccnc(OCc4ccc(Cl)cc4F)n3)cc2F)nc2c(F)cc(C(=O)O)cc21 [Example 117, (S)-2-(4-(2-((4-chloro-2-fluorobenzyl)oxy)pyrimidin-4-yl)-2,5-difluorobenzyl)-1-(4,4-dimethyltetrahydrofuran-3-yl)-4-fluoro-1H-benzo[d]imidazole-6-carboxylic Acid]
6 | – | – | – | – | – | – | – | 1.7 ± 0.6 | 19.4 ± 3.31 | 1190 ± 137 | 47.6 ± 8.1 | 0.031 | CC1(C)COC[C@H]1n1c(Cc2cc(F)c(-c3cccc(OCc4ccc(C#N)cc4)n3)cc2F)nc2ccc(C(=O)O)cc21 [Example 119, (S)-2-(4-(6-((4-cyanobenzyl)oxy)pyridin-2-yl)-2,5-difluorobenzyl)-1-(4,4-dimethyltetrahydrofuran-3-yl)-benzimidazole-6-carboxylic Acid]
